Measured values: the supplement of paper PMC10307832

Tests used:
Assay in all cases: relative viability (nuclei count vs DMSO), 5 days (fraction); higher = more cells survive
Dinaciclib + Palbociclib = compound: CCc1cnn2c(NCc3ccc[n+]([O-])c3)cc(N3CCCC[C@H]3CCO)nc12 [Dinaciclib] + CC(=O)c1c(C)c2cnc(Nc3ccc(N4CCNCC4)cn3)nc2n(C2CCCC2)c1=O [Palbociclib] (partner 0.5 µM)
Summary of the method: (§1)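 Dosing by pin tool came one day after lung cancer cell lines were seeded in 1536-well plates, using either one drug or a fixed anchor-drug dose plus five library-drug doses (not always all listed) in √10 steps. After 5 days, nuclei were counted on 4× images. Relative viability is treated-well nuclei count divided by vehicle-well nuclei count, and values are medians of duplicate plates.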

Dinaciclib + Luminespib = compound: CCc1cnn2c(NCc3ccc[n+]([O-])c3)cc(N3CCCC[C@H]3CCO)nc12 [Dinaciclib] + CCNC(=O)c1noc(-c2cc(C(C)C)c(O)cc2O)c1-c1ccc(CN2CCOCC2)cc1 [Luminespib] (partner 0.01 µM)
Summary of the method: as §1

Dinaciclib + Linsitinib = compound: CCc1cnn2c(NCc3ccc[n+]([O-])c3)cc(N3CCCC[C@H]3CCO)nc12 [Dinaciclib] + C[C@]1(O)C[C@@H](c2nc(-c3ccc4ccc(-c5ccccc5)nc4c3)c3c(N)nccn32)C1 [Linsitinib] (partner 1 µM)
Summary of the method: as §1

Dinaciclib + AZD7762 = compound: CCc1cnn2c(NCc3ccc[n+]([O-])c3)cc(N3CCCC[C@H]3CCO)nc12 [Dinaciclib] + NC(=O)Nc1cc(-c2cccc(F)c2)sc1C(=O)N[C@H]1CCCNC1 [AZD7762] (partner 0.2 µM)
Summary of the method: as §1

Dinaciclib + Olaparib = compound: CCc1cnn2c(NCc3ccc[n+]([O-])c3)cc(N3CCCC[C@H]3CCO)nc12 [Dinaciclib] + O=C(c1cc(Cc2n[nH]c(=O)c3ccccc23)ccc1F)N1CCN(C(=O)C2CC2)CC1 [Olaparib] (partner 8 µM)
Summary of the method: as §1

| Cell Line | relative viability (Dinaciclib + Palbociclib; first compound 0.009487 µM) | relative viability (Dinaciclib + Palbociclib; first compound 0.03 µM) | relative viability (Dinaciclib + Palbociclib; first compound 0.09487 µM) | relative viability (Dinaciclib + Palbociclib; first compound 0.3 µM) | relative viability (Dinaciclib + Luminespib; first compound 0.009487 µM) | relative viability (Dinaciclib + Luminespib; first compound 0.03 µM) | relative viability (Dinaciclib + Luminespib; first compound 0.09487 µM) | relative viability (Dinaciclib + Luminespib; first compound 0.3 µM) | relative viability (Dinaciclib + Linsitinib; first compound 0.009487 µM) | relative viability (Dinaciclib + Linsitinib; first compound 0.03 µM) | relative viability (Dinaciclib + Linsitinib; first compound 0.09487 µM) | relative viability (Dinaciclib + Linsitinib; first compound 0.3 µM) | relative viability (Dinaciclib + AZD7762; first compound 0.009487 µM) | relative viability (Dinaciclib + AZD7762; first compound 0.03 µM) | relative viability (Dinaciclib + AZD7762; first compound 0.09487 µM) | relative viability (Dinaciclib + AZD7762; first compound 0.3 µM) | relative viability (Dinaciclib + Olaparib; first compound 0.009487 µM) | relative viability (Dinaciclib + Olaparib; first compound 0.03 µM) | relative viability (Dinaciclib + Olaparib; first compound 0.09487 µM) | relative viability (Dinaciclib + Olaparib; first compound 0.3 µM) |
| --- | --- | --- | --- | --- | --- | --- | --- | --- | --- | --- | --- | --- | --- | --- | --- | --- | --- | --- | --- | --- |
| 201T | 0.354 | 0.285 | 0.231 | 0.228 | 1.2 | 0.342 | 0.24 | 0.256 | 1.11 | 1 | 0.362 | 0.368 | 0.79 | 0.844 | 0.252 | 0.228 | 0.991 | 0.34 | 0.225 | 0.223 |
| A-427 | 0.437 | 0.142 | 0.126 | 0.127 | 0.554 | 0.0941 | 0.0692 | 0.0782 | 1.09 | 0.512 | 0.0865 | 0.0756 | 0.75 | 0.161 | 0.117 | 0.102 | 0.459 | 0.104 | 0.0978 | 0.101 |
| ABC-1 | 0.648 | 0.334 | 0.212 | 0.246 | 0.581 | 0.209 | 0.173 | 0.178 | 0.665 | 0.278 | 0.166 | 0.126 | 0.87 | 0.642 | 0.189 | 0.178 | 0.807 | 0.316 | 0.272 | 0.252 |
| BEN | 0.458 | 0.386 | 0.287 | 0.296 | 0.323 | 0.221 | 0.174 | 0.133 | 1.01 | 0.68 | 0.216 | 0.21 | 0.894 | 0.566 | 0.217 | 0.287 | 0.956 | 0.457 | 0.258 | 0.26 |
| CAL-12T | 0.121 | 0.137 | 0.108 | 0.128 | 0.133 | 0.085 | 0.0815 | 0.0961 | 0.452 | 0.175 | 0.112 | 0.145 | 0.565 | 0.187 | 0.14 | 0.183 | 0.589 | 0.134 | 0.13 | 0.141 |
| COR-L23 | 0.222 | 0.0905 | 0.0689 | 0.0651 | 0.226 | 0.0887 | 0.0655 | 0.0681 | 0.736 | 0.0901 | 0.0662 | 0.0681 | – | – | – | – | 0.356 | 0.112 | 0.0765 | 0.0765 |
| COR-L 105 | 0.414 | 0.311 | 0.296 | 0.309 | 0.509 | 0.214 | 0.229 | 0.169 | 0.55 | 0.239 | 0.245 | 0.249 | – | – | – | – | 0.957 | 0.391 | 0.312 | 0.269 |
| ChaGo-K-1 | 0.971 | 0.239 | 0.118 | 0.114 | 0.342 | 0.182 | 0.123 | 0.0984 | – | – | – | – | 0.904 | 0.389 | 0.131 | 0.117 | 0.371 | 0.145 | 0.0867 | 0.0975 |
| EKVX | 0.323 | 0.234 | 0.114 | 0.113 | 0.858 | 0.705 | 0.137 | 0.101 | 0.961 | 0.51 | 0.0946 | 0.137 | 0.756 | 0.436 | 0.127 | 0.101 | 0.721 | 0.346 | 0.123 | 0.139 |
